These results are taken from patent US20030236175A1, “Process for well fluids base oil via metathesis of alpha-olefins” (priority 2002, published 2003).

The subject of this data set is leptocheirus plumulosus. The format is in vivo. The text has this:
This protocol uses leptocheirus plumulosus in a 10-day sediment toxicity test using a reference standard C16-18 IO (internal olefin) (sometimes also designated as C16-C18 IO, C1618 IO, or C16-18 IO) having approximately 65% C16 and 35% C18 olefin.

For `CCCCCCCCC=CCCCCCCCC` [Example 11, 9-octadecene], the “Toxicity, mg/kg” value (LC50, 10-day sediment toxicity test, leptocheirus plumulosus) is 11,279 mg/kg. Also, the Toxicity ratio (ratio of LC50 values, sample vs reference standard C16-18 IO (Equation 1), passing <= 1.0) was found to be 0.63.
